According to publication PMC12216609, “Inhibitors of eIF1A-ribosome interaction unveil uORF-dependent regulation of translation initiation and antitumor and antiviral effects” (The EMBO Journal, 2025):
Values joined by “and” are separate entries in the source; they are usually repeats but may differ in a detail not shown here. Equal values may be shown once. Read-outs that look alike come from different tables or passages of the source.

Assays:
[1] = target: T1, eIF1A (Homo sapiens, UniProt P47813); type: binding; details: for fluorescence ratio, eIF1A: background-corrected, relative to DMSO or lowest 1Ai concentration, replicate columns; for WT eIF1A IC50: fluorescence binding
T1 construct: His-bdSUMO (cleaved yes); made in house; host or cells: E. coli BL-21
T1 sequence (P47813 whole entry): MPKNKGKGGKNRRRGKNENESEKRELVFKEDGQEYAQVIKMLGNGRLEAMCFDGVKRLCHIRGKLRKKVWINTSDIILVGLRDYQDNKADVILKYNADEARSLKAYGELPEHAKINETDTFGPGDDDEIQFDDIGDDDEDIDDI

[2] = target: T2, RPS10 (Homo sapiens, UniProt P46783); type: binding
T2 construct: made in house; host or cells: E. coli BL-21

[3] = tested on: CUG/GUG vs AUG start codon luciferase reporters in HEK293T cells; experiment: Near-cognate AUG starting codon fidelity reporter assay (GUG, CUG vs AUG); type: cell-based; details: for average CUG and GUG / average CUG and GUG relative to DMSO / CUG Average / GUG Average: NUG experiment; for CUG Average: CUG vs AUG reporter; for GUG Average: GUG vs AUG reporter; for NUG (Final data, Fig. 1E): average CUG and GUG relative to DMSO, 20 µM overnight; for GUG vs AUG data (%): individual repeat; for GUG vs AUG (%) Average: summary average of repeats, DMSO control average […]; for CUG vs AUG (%): CUG start codon reporter relative to AUG reporter (AUG = 100); for CUG vs AUG (%) / GUG vs AUG (%): single-experiment calculation; for GUG vs AUG (%): GUG start codon reporter relative to AUG reporter (AUG = 100)
[4] = tested on: cap-proximal AUG GFP reporter in HEK293T cells; type: cell-based; details: GFP WB densitometry; 20 µM overnight; dmso 0.965946;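 note: ratio of upstream to downstream AUG initiation products on GFP Western blot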
[5] = tested on: IRF7 5'UTR firefly luciferase reporter in HEK293T cells; details: for Reference vs IRF7 (Final data, Fig. 1E): 1/Result, relative to DMSO; for LONG (summary - All), normalized to DMSO: Long reporter; for LONG (summary - All), normalized to DMSO / SHORT (summary - All), normalized to DMSO: individual replicates, outliers excluded, DMSO = 1; for Long 5'UTR reporter luciferase activity, normalized to DMSO (=1), single replicates: left data block (Long), source data of Fig 1C; for average ( long vs short ratio): summary - All;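 for all read-outs here: luciferase signal corrected by a co-transfected GFP reporter for transfection efficiency, read after overnight compound exposure, with Long and Short reporters differing in 5'UTR length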
Method: For the effect on ribosomal scanning, we used two firefly luciferase reporter genes that differ in their 5'UTR length (Fig. 1C). […] Cells were transfected with these reporters along with a GFP reporter gene used to normalize transfection efficiency. After an overnight 1Ai or DMSO (vehicle control) exposure, luciferase and GFP expression were measured, and normalized activity was determined.
For the reference vs IRF7 5'UTR luciferase reporter assay, HEK239T cells in a 12-well plate were transfected with the previously described IRF7 5'UTR or reference firefly luciferase reported genes (Sehrawat et al, [2019]) (100 ng/well) together with GFP (20 ng/well) that served as an internal control by CaCl2 transfection. After 6 h, half of the growth medium was replaced with a medium containing the different compounds, reaching a final concentration of 20 µM. Twenty-four hours after transfection, transfection efficiency was evaluated using GFP fluorescence intensity (Cytation 5, ex/em: 470/525). Cells were harvested in 50 µL Reported lysis buffer (RLB) and put on a shaker for 10 min. From each well 5 µL were taken in duplicates and tested by luminometer.

[6] = target: NSP1 (Severe acute respiratory syndrome coronavirus 2, UniProt P0DTD1)
[7] = summary table, fluorescence binding assay
[8] = read-out: IC50 (line under RPS10 binding data)
[9] = summary table, fluorescence binding assay, read-out: IC50 concentration (µM), RPS10
[10] = compound at 10uM (summary head)
[11] = compound at 20uM (summary head)
[12] = raw data calculation of one experiment, GFP normalized, AUG set to 100, compound marked (20)

CCOc1cc(C(=O)Nc2ccc(Cl)c(-c3nc4ccccc4[nH]3)c2)cc(OCC)c1OCC [1Ai-5677]
fluorescence ratio, eIF1A ([1]; 1Ai conc. 0.25 uM): 0.8378 and 0.9597
fluorescence ratio, eIF1A ([1]; 1Ai conc. 0.5 uM): 0.7937 and 0.9656
fluorescence ratio, eIF1A ([1]; 1Ai conc. 1 uM): 0.9644 and 1.01
fluorescence ratio, eIF1A ([1]; 1Ai conc. 2 uM): 1.084 and 0.9877
fluorescence ratio, eIF1A ([1]; 1Ai conc. 4 uM): 1.028 and 1.008
fluorescence ratio, eIF1A ([1]; 1Ai conc. 8 uM): 0.9744 and 0.9518
fluorescence ratio, eIF1A ([1]; 1Ai conc. 16 uM): 1.11 and 0.9262
fluorescence ratio, eIF1A ([1]; 1Ai conc. 32 uM): 1.565 and 1.017
fluorescence ratio, eIF1A ([1]; 1Ai conc. 64 uM): 1.663 and 1.113
fluorescence ratio, eIF1A ([1]; 1Ai conc. 256 uM): 1.623 and 1.122
IC50 ([1]; summary table, fluorescence binding assay, read-out: IC50 concentration (µM), WT eIF1A): 24.8 µM
RPS10 fluorescence ratio to control ([2]; 1Ai conc. 0.25 uM): 1.185
RPS10 fluorescence ratio to control ([2]; 1Ai conc. 0.5 uM): 1.207
RPS10 fluorescence ratio to control ([2]; 1Ai conc. 1 uM): 1.132
RPS10 fluorescence ratio to control ([2]; 1Ai conc. 2 uM): 1.142
RPS10 fluorescence ratio to control ([2]; 1Ai conc. 4 uM): 1.154
RPS10 fluorescence ratio to control ([2]; 1Ai conc. 8 uM): 1.116
RPS10 fluorescence ratio to control ([2]; 1Ai conc. 16 uM): 1.16
RPS10 fluorescence ratio to control ([2]; 1Ai conc. 32 uM): 1.234
RPS10 fluorescence ratio to control ([2]; 1Ai conc. 64 uM): 1.307
RPS10 fluorescence ratio to control ([2]; 1Ai conc. 256 uM): 1.29
RPS10 IC50 ([2]; fluorescence binding): No binding
IC50 concentration (µM), RPS10 [2, 7]: No binding
average CUG and GUG [3]: 7.022
average CUG and GUG relative to DMSO [3]: 1.557
CUG Average [3]: 10.2182
GUG Average [3]: 3.825
NUG (Final data, Fig. 1E) [3]: 1.557
GUG vs AUG data (%) ([3]; compound at 20uM): 5.33% and 3.23% and 3.12% and 3.62%
GUG vs AUG (%) Average ([3]; compound at 20uM): 3.82%
US/DS ratio, average [4]: 0.4981
Reference vs IRF7 (Final data, Fig. 1E) ([5]; 20 µM): 1.223
LONG (summary - All), normalized to DMSO ([5]; 20 µM): 0.42 and 0.28 and 0.29 and 0.61
SHORT (summary - All), normalized to DMSO ([5]; Short reporter, 20 µM): 0.22 and 0.81 and 0.72 and 0.21
Long 5'UTR reporter luciferase activity, normalized to DMSO (=1), single replicates ([5]; compound at 20 µM): 0.4235 and 0.2817 and 0.2949 and 0.6069
average ( long vs short ratio) ([5]; 20 µM): 0.817
GFP reporter ratio nsp1/gfp, avg [6]: 0.572
GFP reporter ratio nsp1/gfp, rep 1 [6]: 0.572
gfp signal, mean of duplicate wells [6]: 1615.5
nsp1 signal, mean of duplicate wells [6]: 924
ratio (nsp1/gfp) [6]: 0.572

O=c1cc(CN2CCOCC2)occ1OCCCCCSc1ccnc2cc(C(F)(F)F)ccc12 [1Ai-5730]
fluorescence ratio, eIF1A ([1]; 1Ai conc. 0.25 uM): 1.04 and 0.9394
fluorescence ratio, eIF1A ([1]; 1Ai conc. 0.5 uM): 1.062 and 0.9801
fluorescence ratio, eIF1A ([1]; 1Ai conc. 1 uM): 1.0621 and 0.9646
fluorescence ratio, eIF1A ([1]; 1Ai conc. 2 uM): 1.055 and 0.9796
fluorescence ratio, eIF1A ([1]; 1Ai conc. 4 uM): 1.077 and 1.03
fluorescence ratio, eIF1A ([1]; 1Ai conc. 8 uM): 0.8919 and 0.9326
fluorescence ratio, eIF1A ([1]; 1Ai conc. 16 uM): 0.9465 and 0.9064
fluorescence ratio, eIF1A ([1]; 1Ai conc. 32 uM): 0.9379 and 0.8516
fluorescence ratio, eIF1A ([1]; 1Ai conc. 64 uM): 0.7437 and 0.7726
WT eIF1A IC50 [1]: No binding
IC50 concentration (µM), WT eIF1A [1, 7]: No binding
RPS10 fluorescence ratio to control ([2]; 1Ai conc. 0.25 uM): 1
RPS10 fluorescence ratio to control ([2]; 1Ai conc. 0.5 uM): 0.9752
RPS10 fluorescence ratio to control ([2]; 1Ai conc. 1 uM): 0.9984
RPS10 fluorescence ratio to control ([2]; 1Ai conc. 2 uM): 0.9868
RPS10 fluorescence ratio to control ([2]; 1Ai conc. 4 uM): 1.11
RPS10 fluorescence ratio to control ([2]; 1Ai conc. 8 uM): 1.2215
RPS10 fluorescence ratio to control ([2]; 1Ai conc. 16 uM): 1.217
RPS10 fluorescence ratio to control ([2]; 1Ai conc. 32 uM): 1.212
RPS10 fluorescence ratio to control ([2]; 1Ai conc. 256 uM): 1.367
IC50 [2, 8]: 22.1 µM
IC50 ([2]; read-out: RPS10 IC50): 22.1 µM
IC50 [2, 9]: 22.1 µM
CUG vs AUG (%) [3, 10]: 9.994%
GUG vs AUG (%) [3, 10]: 3.756%
average CUG and GUG [3]: 3.9567
average CUG and GUG relative to DMSO [3]: 0.8773
CUG Average [3]: 6.145
GUG Average [3]: 1.768
NUG (Final data, Fig. 1E) [3]: 0.877
GUG vs AUG data (%) ([3]; compound at 10uM): 1.66% and 2.32% and 1.73% and 1.38%
GUG vs AUG (%) Average ([3]; compound at 10uM): 1.77%
US/DS ratio, average [4]: 0.4467
Reference vs IRF7 (Final data, Fig. 1E) ([5]; 20 µM): 1.720
LONG (summary - All), normalized to DMSO ([5]; 10 µM): 0.65 and 0.52 and 0.40 and 0.70
SHORT (summary - All), normalized to DMSO ([5]; Short reporter, 10 µM): 0.89 and 1.17 and 0.87
Long 5'UTR reporter luciferase activity, normalized to DMSO (=1), single replicates ([5]; compound at 10 µM): 0.6956
Short: Normalized to average DMSO ([5]; data section, Short reporter, GFP-corrected, 10 µM, per experiment): 0.892 and 1.021 and 1.1679
average ( long vs short ratio) ([5]; 10 µM): 0.581
GFP reporter ratio nsp1/gfp, avg [6]: 0.5107
GFP reporter ratio nsp1/gfp, rep 1 [6]: 0.524
gfp signal, mean of duplicate wells [6]: 1636.5
nsp1 signal, mean of duplicate wells [6]: 857.5
ratio (nsp1/gfp) [6]: 0.524

Cn1c(=O)c2ccccc2n2c(CNC(c3ccc4c(c3)CCC4)c3cccs3)nnc12 (stereo not shown) [1Ai-7688]
fluorescence ratio, eIF1A ([1]; 1Ai conc. 0.25 uM): 1.037 and 0.9455
fluorescence ratio, eIF1A ([1]; 1Ai conc. 0.5 uM): 1.0637 and 0.9156
fluorescence ratio, eIF1A ([1]; 1Ai conc. 1 uM): 1.06 and 0.9161
fluorescence ratio, eIF1A ([1]; 1Ai conc. 2 uM): 1.104 and 0.9936
fluorescence ratio, eIF1A ([1]; 1Ai conc. 4 uM): 1.1 and 0.9264
fluorescence ratio, eIF1A ([1]; 1Ai conc. 8 uM): 1.007 and 0.92
fluorescence ratio, eIF1A ([1]; 1Ai conc. 16 uM): 0.939 and 0.9024
fluorescence ratio, eIF1A ([1]; 1Ai conc. 32 uM): 0.8822 and 0.9176
fluorescence ratio, eIF1A ([1]; 1Ai conc. 64 uM): 0.9562 and 1.05
fluorescence ratio, eIF1A ([1]; 1Ai conc. 256 uM): 1.305 and 1.351
WT eIF1A IC50 [1]: No binding
IC50 concentration (µM), WT eIF1A [1, 7]: No binding
RPS10 fluorescence ratio to control ([2]; 1Ai conc. 0.25 uM): 1.264
RPS10 fluorescence ratio to control ([2]; 1Ai conc. 0.5 uM): 2.089
RPS10 fluorescence ratio to control ([2]; 1Ai conc. 1 uM): 1.116
RPS10 fluorescence ratio to control ([2]; 1Ai conc. 2 uM): 1.353
RPS10 fluorescence ratio to control ([2]; 1Ai conc. 4 uM): 1.556
RPS10 fluorescence ratio to control ([2]; 1Ai conc. 8 uM): 0.3218
RPS10 fluorescence ratio to control ([2]; 1Ai conc. 16 uM): 0.1412
RPS10 fluorescence ratio to control ([2]; 1Ai conc. 32 uM): 0.0755
IC50 [2, 8]: 4.5 µM
IC50 ([2]; read-out: RPS10 IC50): 4.5 µM
IC50 [2, 9]: 4.5 µM
CUG vs AUG (%) [3, 11]: 6.15%
GUG vs AUG (%) [3, 11]: 1.391%
average CUG and GUG [3]: 3.434
average CUG and GUG relative to DMSO [3]: 0.7613
CUG Average [3]: 5.347
GUG Average [3]: 1.52
NUG (Final data, Fig. 1E) [3]: 0.761
GUG vs AUG data (%) ([3]; compound at 20uM): 1.96% and 1.30% and 1.49% and 1.33%
GUG vs AUG (%) Average ([3]; compound at 20uM): 1.52%
calculation: CUG (AUG = 100) [3, 12]: 4.522
calculation: GUG (AUG = 100) [3, 12]: 1.611
US/DS ratio, average [4]: 0.7504
Reference vs IRF7 (Final data, Fig. 1E) ([5]; 20 µM): 1.509
LONG (summary - All), normalized to DMSO ([5]; 20 µM): 0.23 and 0.0442 and 0.78 and 0.63 and 1.12 and 0.61
SHORT (summary - All), normalized to DMSO ([5]; Short reporter, 20 µM): 0.19 and 0.05 and 1.25 and 0.79 and 1.33 and 1.55
Long 5'UTR reporter luciferase activity, normalized to DMSO (=1), single replicates ([5]; compound at 20 µM): 0.2324 and 0.04416 and 0.7839 and 0.6346 and 1.115 and 0.6102
average ( long vs short ratio) ([5]; 20 µM): 0.663
GFP reporter ratio nsp1/gfp, avg [6]: 0.4413
GFP reporter ratio nsp1/gfp, rep 1 [6]: 0.4413
gfp signal, mean of duplicate wells [6]: 1907
nsp1 signal, mean of duplicate wells [6]: 841.5
ratio (nsp1/gfp) [6]: 0.441
